Results as given in patent publication US4880791A, “Combination product composed of xanthine derivatives and O-acetylsalicylic acid or its pharmacologically tolerated salts, and its use” (priority 1984, dated 1989).

Columns and labels:
[1] = test system: laser-induced thrombosis in the arterioles and venules of the rat mesentery; assay: laser-induced thrombosis in arterioles of the rat mesentery; type: in vivo, rat (female Sprague-Dawley); conditions: for Changes from controls, % / Changes from controls, absolute / Number of shots: single substance
Procedure: The evaluation was carried out by analysis by vital microscopy (Nature, 218 (1968) 887 and Haemostasis 13 (1983) 61 and IRCS Med. Sci. 12 (1984) 91).
The test substances were administered in 0.9% sodium chloride solution (which contained 1% carboxymethylcellulose (Serva, Heidelberg)) either orally, intraperitoneally or intravenously. Control animals were treated in the corresponding manner but without the test substances. The experimental animals used were male or female Sprague-Dawley or Wistar rats.
The animals which were to be investigated underwent s.c. premedication with 0.1 mg of atropine sulfate in solution and were anesthetized with 100 mg of ketamine hydrochloride and 4 mg of xylazine per kg of body weight i.p. The investigation made use of arterioles and venules of the mesentery, which was coated with degassed liquid paraffin, having a diameter of about 13 μm. The beam of a 4 W argon laser (supplied by Spectra Physics, Darmstadt) was introduced coaxially, by means of a beam adaptation and adjustment system (supplied by BTG, Munich), into the inverted optical path of a microscope (ICM 405, LD-Epipland 40/0.60; supplied by Zeiss, Oberkochen). The wavelength used was 514.5 nm, with an energy above the objective of 30.5 mW. The exposure time per single shot was 1/15 sec. All the measuring operations were recorded by video camera (Trinicon tube, Sony, Cologne) and stored in a recorder (Sony, U-matic 3/4"). The test substances were administered in various doses to the experimental animals, orally one hour, and on i.v. administration 10 min., before the start of the experiment, control animals receiving the same amount of placebo.
The number of shots needed to induce a defined thrombus is counted.
The results of the experiment were subjected to statistical analysis using the .chi.^2 test (L. Cavalli-Sforza, Biometrie (Biostatistics), Stuttgart, 1969, pages 49 et seq.). […]

[2] = test system: mucosa of the glandular stomach; assay: test of gastric tolerance (ulcerogenic effect); type: in vivo, rat (male Sprague-Dawley); conditions: for Number of animals with ulcers: 10 animals
Procedure: 24 hours after the last medication, the stomach was cut open along the lesser curvature, cleaned under running water, and inspected for mucosal lesions. All lesions visible on macroscopic inspection of the mucosa of the glandular stomach were regarded as ulcers.

[3] = test system: erythrocyte filterability; assay: erythrocyte filterability in adjuvant arthritis rats; type: in vivo, rat; conditions: oral 21 days
Procedure: (§1) The hemorheological, antithrombotic, antiaggregatory and antiinflammatory effects of the combinations according to the invention were investigated after oral administration for 21 days in the pathological model of adjuvant arthritis (induced with Mycobacterium butyricum) is the rat by the method of Clincal Hemorheology 3 (1983) 469-480, and were compared with those of the appropriate individual substances. Blood was taken from the thoracic aorta 1 hour after the last administration of substance. All the details of the determination of the hemorheological effect were as described in Clinical Hemorheology 4 (1984) 263-273. The erythocyte deformability was quantitatively determined in a filtrometer (Myrenne MF 4, Roetgen, Germany) by evaluation of the initial gradient of the flow curve.

[4] = test system: tendency to thrombosis in arthritic rat; assay: laser-induced tendency to thrombosis in arthritic rats; type: in vivo; conditions: oral 21 days
Procedure: as §1
The antithrombotic effect was measured using the laser model as described above.

[5] = test system: induced platelet aggregation; assay: collagen-induced platelet aggregation in arthritic rats; type: in vivo, rat; conditions: oral 21 days
Procedure: as §1
The measurements of platelet aggregation were carried out as described above in detail. However, instead of arachidonic acid 0.04 mg of collagen was used to induce platelet aggregation in 1 ml of platelet-rich plasma (PA II aggregometer from Myrenne, Roetgen).

[6] = test system: adjuvant arthritis (Mycobacterium butyricum) in the rat; assay: antiinflammatory effect in adjuvant arthritis (paw edema, necrosis index); type: in vivo
Procedure: as §1
The antiflammatory effect was quantitatively measured, as quoted above, using the volume of the edema of the paw and using the standard necrosis index.

rat aortas = conditions: treatment of the rats with acetylsalicylic acid; cited from earlier work
human blood platelets = conditions: cited from earlier work
cyclooxygenase = conditions: cited from earlier work
vascular cyclooxygenase = conditions: cited from earlier work
[7] = customary doses; cited from earlier work
[8] = Table 1b, 1 mg/kg acetylsalicylic acid without pentoxifylline

## CC(=O)Oc1ccccc1C(=O)O [Acetylsalicylic acid, O-acetylsalicylic acid]
[1]; 1 mg/kg oral
  Changes from controls, %: -13%
  Changes from controls, absolute: -0,35
  Number of shots: 1,88
[1]; 5 mg/kg oral
  Changes from controls, %: -18%
  Changes from controls, absolute: -0,38
  Number of shots: 1,79
[1]; 10 mg/kg oral
  Changes from controls, %: 35%
  Changes from controls, absolute: 0,75
  Number of shots: 2,92
[1]; 30 mg/kg oral
  Changes from controls, %: 48%
  Changes from controls, absolute: 1,04
  Number of shots: 3,21
[1]; [8]
  % change from controls: -13%
  -x (number of shots): 1,90
[1]; oral dose 10 mg/kg
  effect in laser-induced thrombosis: significant effect
[1]; single oral dose 5 mg/kg
  effect in laser-induced thrombosis: not significant
[2]; acetylsalicylic acid 25 mg/kg oral
  Number of animals with ulcers: 5
[2]; acetylsalicylic acid 50 mg/kg oral
  Number of animals with ulcers: 7
[2]; acetylsalicylic acid 100 mg/kg oral
  Number of animals with ulcers: 9
[2]; acetylsalicylic acid 1,25 mg/kg oral
  Number of animals with ulcers: 1
[2]; acetylsalicylic acid 12,50 mg/kg oral
  Number of animals with ulcers: 2
[2]; acetylsalicylic acid after pretreatment with pentoxifylline
  gastric ulcerogenicity: unaffected by pretreatment with pentoxifylline
[3]; 10 mg, healthy = 100%, untreated arthritic 59%
  erythrocyte filterability: 63%
[3]; 180 mg
  erythrocyte filterability: 68%
[3]
  erythrocyte filterability in arthritic rats (in words): can be increased again
[4]; 10 mg, healthy = 100%, untreated arthritic 46%
  tendency to thrombosis (number of shots): 47%
[4]; 180 mg
  tendency to thrombosis (number of shots): 91%
[5]; 10 mg, untreated arthritic = 100%, healthy 0%
  induced platelet aggregation: 62%
[5]; 180 mg
  induced platelet aggregation: 35%
[6]; 10 mg
  Percentage improvement, necrosis index: 8%
  Percentage improvement, volume of paw edema, left paw: 2%
  Percentage improvement, volume of paw edema, right paw: 3%
[6]; 180 mg
  Percentage improvement, necrosis index: 28%
  Percentage improvement, volume of paw edema, left paw: 28%
  Percentage improvement, volume of paw edema, right paw: 26%
Rat aortas
  release of the substance having antiaggregatory activity stimulated by pentoxifylline: can be suppressed
Human blood platelets
  aggregation of human blood platelets: inhibitor of the aggregation
cyclooxygenase
  cyclooxygenase localized in the blood platelets: inhibits the enzyme cyclooxygenase
Vascular cyclooxygenase
  inhibition of vascular cyclooxygenase: found only at higher doses
[7]
  undesired side effects: asthma, allergic urticaria, analgesic nephropathy and peptic ulcers
